Test results published in patent US10590158B2 (priority 2015, dated 2020).

What was measured:
Test in all cases: cells
Format in all cases: cell-based
[1] = system: MES SA cells; conditions: Homo sapiens, 72 h, read-out: IC50 MES SA
[2] = system: 293T cells; conditions: Homo sapiens, HEK-293T, 72 h, read-out: IC50 293T
[3] = system: MES DX cells; conditions: MDR1, 72 h, read-out: IC50 MES DX

## COC(=O)NC1=C2/C(=C\CSSSC)[C@](O)(C#C/C=C\C#C[C@]2(O)OC2OC(C)C(SC)(C(=O)c3nccc4c3[nH]c3ccc(O)cc34)C(O)C2OC2CC(OC)C(NC(C)C)CO2)CC1=O (stereo partly shown)
[1]
  IC50: 0.0126 nM
[2]
  IC50: 0.0162 nM

## COC(=O)NC1=C2/C(=C\CSSC)[C@](O)(C#C/C=C\C#C[C@]2(O)OC2OC(C)C(SC)(C(=O)c3nccc4c3[nH]c3ccc(O)cc34)C(O)C2OC2CC(OC)C(NC(C)C)CO2)CC1=O (stereo partly shown)
[3]
  IC50: 34.6 nM
[2]
  IC50: 0.00146 nM
